Measurements as given in publication PMC9016878 (ACS Omega, 2022).

Experiments:
[1] = molecular target: α-glucosidase from Saccharomyces cerevisiae; assay: α-glucosidase inhibition; format: biochemical; conditions: read-out: Inhibitory activity (IC50) on α-glucosidase; mean ± SD; pNPG substrate, pH 6.8, 37 °C
[2] = molecular target: T1, porcine pancreatic amylase (Sus scrofa, UniProt P00690); assay: biochemical
T1 sequence (P00690 16-511): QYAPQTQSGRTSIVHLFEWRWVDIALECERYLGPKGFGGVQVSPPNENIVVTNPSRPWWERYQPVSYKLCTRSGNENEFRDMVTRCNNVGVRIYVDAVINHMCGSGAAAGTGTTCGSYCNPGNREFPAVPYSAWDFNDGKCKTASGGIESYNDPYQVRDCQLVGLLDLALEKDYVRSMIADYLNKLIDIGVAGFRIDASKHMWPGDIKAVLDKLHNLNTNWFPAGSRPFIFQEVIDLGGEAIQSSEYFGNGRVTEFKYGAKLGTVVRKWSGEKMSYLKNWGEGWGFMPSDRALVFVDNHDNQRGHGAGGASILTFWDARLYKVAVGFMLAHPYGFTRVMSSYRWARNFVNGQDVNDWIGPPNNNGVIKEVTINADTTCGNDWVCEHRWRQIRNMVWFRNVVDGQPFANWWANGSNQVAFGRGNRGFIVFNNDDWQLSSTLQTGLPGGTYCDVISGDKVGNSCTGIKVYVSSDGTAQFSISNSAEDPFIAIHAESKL

[3] = molecular target: T2, lipase from porcine pancreas (Sus scrofa, UniProt P00591); assay: pancreatic lipase inhibition; format: biochemical
T2 sequence (P00591 1-450): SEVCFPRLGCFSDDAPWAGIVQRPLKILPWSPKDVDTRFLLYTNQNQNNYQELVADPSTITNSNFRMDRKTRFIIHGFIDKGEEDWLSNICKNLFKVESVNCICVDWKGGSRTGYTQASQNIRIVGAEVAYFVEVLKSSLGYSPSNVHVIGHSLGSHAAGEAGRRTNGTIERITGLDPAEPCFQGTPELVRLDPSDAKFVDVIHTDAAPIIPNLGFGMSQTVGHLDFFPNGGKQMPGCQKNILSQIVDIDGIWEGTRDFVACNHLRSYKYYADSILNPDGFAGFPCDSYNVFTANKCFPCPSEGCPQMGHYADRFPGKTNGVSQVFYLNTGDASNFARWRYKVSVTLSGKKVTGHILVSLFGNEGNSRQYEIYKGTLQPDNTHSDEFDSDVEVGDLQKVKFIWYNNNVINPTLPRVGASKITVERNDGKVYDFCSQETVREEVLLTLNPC

Row | IC50 [1] [µM] | IC50 [2] [µM] | IC50 [3] [µM] | SMILES
1 | 192 ± 13.8 |  |  | C[C@@H]1CC[C@]2(C(=O)O)CC[C@]3(C)C(=CC[C@@H]4[C@@]5(C)[C@H](O)C(=O)[C@H](O)C(C)(C)[C@@H]5CC[C@]43C)[C@@H]2[C@]1(C)O [compound 7, 1-hydroxy-2-oxopomolic acid]
2 | 85.5 ± 6.87 | 142 ± 6.15 | 458 ± 72.8 | C[C@@H]1CC[C@]2(C(=O)O)CC[C@]3(C)C(=CC[C@@H]4[C@@]5(C)CC[C@H](O)C(C)(C)[C@@H]5CC[C@]43C)[C@@H]2[C@]1(C)O [compound 13, pomolic acid]
3 |  | 113 ± 3.51 |  | CC[C@H](CC[C@@H](C)[C@H]1CC[C@H]2[C@@H]3CC=C4C[C@@H](O[C@@H]5O[C@H](CO)[C@@H](O)[C@H](O)[C@H]5O)CC[C@]4(C)[C@H]3CC[C@]12C)C(C)C [compound 14, β-sitosterol glucoside]
